This note sets out measurements from patent US20200138028A1, “MICROBIOCIDAL OXADIAZOLE DERIVATIVES” (SYNGENTA PARTICIPATIONS AG, priority 2016, published 2020).

In data set [1] the test system is Puccinia recondita f. sp. tritici. In words: Puccinia recondita f. sp. tritici / wheat / leaf disc curative (brown rust). The data set is classed as in vivo. To be noted: foliar, 200 ppm in the applied formulation, wheat leaf segments cv. Kanzler, applied 1 day after inoculation, 6 to 8 days after application, read-out: disease control compared to untreated control leaf disks. The procedure: Leaf disks or leaf segments of various plant species are cut from plants grown in a greenhouse. The cut leaf disks or segments are placed in multiwell plates (24-well format) onto water agar. The leaf disks are sprayed with a test solution before (preventative) or after (curative) inoculation. Compounds to be tested are prepared as DMSO solutions (max. 10 mg/ml) which are diluted to the appropriate concentration with 0.025% Tween20 just before spraying. The inoculated leaf disks or segments are incubated under defined conditions (temperature, relative humidity, light, etc.) according to the respective test system. A single evaluation of disease level is carried out 3 to 14 days after inoculation, depending on the pathosystem. Percent disease control relative to the untreated check leaf disks or segments is then calculated.
Wheat leaf segments cv. Kanzler are placed on agar in multiwell plates (24-well format). The leaf segments are then inoculated with a spore suspension of the fungus. Plates were stored in darkness at 19° C. and 75% relative humidity. The formulated test compound diluted in water was applied 1 day after inoculation. The leaf segments were incubated at 19° C. and 75% relative humidity under a light regime of 12 hours light/12 hours darkness in a climate cabinet and the activity of a compound was assessed as percent disease control compared to untreated when an appropriate level of disease damage appears in untreated check leaf segments (6 to 8 days after application).
The following compounds at 200 ppm in the applied formulation give at least 80% disease control in this test when compared to untreated control leaf disks under the same conditions, which show extensive disease development.

Data set [2] relates to Glomerella laqenarium (Colletotrichum laqenarium). In words: Glomerella laqenarium (Colletotrichum laqenarium) liquid culture / cucumber / preventative (anthracnose). Type of data set: cell-based. To be noted: 20 ppm in the applied formulation, liquid culture in PDB, 24° C., 3 to 4 days after application, read-out: disease control compared to untreated control (inhibition of growth, photometric). As to the method: Mycelia fragments or conidia suspensions of a fungus prepared either freshly from liquid cultures of the fungus or from cryogenic storage, are directly mixed into nutrient broth. DMSO solutions of the test compound (max. 10 mg/ml) are diluted with 0.025% Tween20 by a factor of 50 and 10 μl of this solution is pipetted into a microtiter plate (96-well format). The nutrient broth containing the fungal spores/mycelia fragments is then added to give an end concentration of the tested compound. The test plates are incubated in the dark at 24° C. and 96% relative humidity. The inhibition of fungal growth is determined photometrically after 2 to 7 days, depending on the pathosystem, and percent antifungal activity relative to the untreated check is calculated.
Conidia of the fungus from cryogenic storage are directly mixed into nutrient broth (PDB—potato dextrose broth). After placing a (DMSO) solution of test compound into a microtiter plate (96-well format), the nutrient broth containing the fungal spores is added. The test plates are incubated at 24° C. and the inhibition of growth is measured photometrically 3 to 4 days after application.
The following compounds at 20 ppm in the applied formulation give at least 80% disease control in this test when compared to untreated control under the same conditions, which show extensive disease development.

By melting point is commonly meant the temperature, or range, at which the solid turns liquid. Turning to `Cc1cc(-c2noc(C(F)(F)F)n2)ccc1NC(=O)C1CC1` [Compound 1.1, N-[2-methyl-4-[5-(trifluoromethyl)-1,2,4-oxadiazol-3-yl]phenyl]cyclopropane carboxamide], the melting point lay within 185 to 196 °C. Take `Cc1cc(-c2noc(C(F)(F)F)n2)ccc1NC(=O)c1ccccc1` [Compound 1.2, N-[2-methyl-4-[5-(trifluoromethyl)-1,2,4-oxadiazol-3-yl]phenyl]benzamide]: the melting point was 173 to 176 °C. Usually inhibition stands for the change of the read-out against control, counted positive when it falls. `O=C(Nc1ccc(-c2noc(C(F)(F)F)n2)cc1F)C1CC1` [Compound 1.3, N-[2-fluoro-4-[5-(trifluoromethyl)-1,2,4-oxadiazol-3-yl]phenyl]cyclopropane carboxamide] returned a melting point of 160 to 162 °C. The pest or weed control at 200 ppm in data set [1] was ≥ 80%. Further, the inhibition at 20 ppm in data set [2] was ≥ 80%. `O=C(Nc1ccc(-c2noc(C(F)(F)F)n2)cc1F)c1ccccc1` [Compound 1.4, N-[2-fluoro-4-[5-(trifluoromethyl)-1,2,4-oxadiazol-3-yl]phenyl]benzamide] returned a melting point of 166 to 175 °C. With `O=C(Nc1ccc(-c2noc(C(F)(F)F)n2)cc1F)C1CC1(F)F` (stereo not drawn) [Compound 1.5, 2,2-difluoro-N-[2-fluoro-4-[5-(trifluoromethyl)-1,2,4-oxadiazol-3-yl]phenyl]cyclopropane carboxamide], the pest or weed control at 200 ppm in data set [1] is ≥ 80%. Moreover, the inhibition at 20 ppm in data set [2] is ≥ 80%. As to `O=C(Nc1ccc(-c2noc(C(F)(F)F)n2)cc1F)C1CCOC1` (stereo not drawn) [Compound 1.7, N-[2-fluoro-4-[5-(trifluoromethyl)-1,2,4-oxadiazol-3-yl]phenyl]tetrahydrofuran-3-carboxamide], the pest or weed control at 200 ppm in data set [1] is ≥ 80%. The inhibition at 20 ppm in data set [2] was ≥ 80%. With `O=C(Nc1ccc(-c2noc(C(F)(F)F)n2)cc1F)C1CCC1` [Compound 1.8, N-[2-fluoro-4-[5-(trifluoromethyl)-1,2,4-oxadiazol-3-yl]phenyl] cyclobutanecarboxamide], the inhibition at 20 ppm in data set [2] was ≥ 80%. For `CC1CC1C(=O)Nc1ccc(-c2noc(C(F)(F)F)n2)cc1F` (stereo not drawn) [Compound 1.9, N-[2-fluoro-4-[5-(trifluoromethyl)-1,2,4-oxadiazol-3-yl]phenyl]-2-methyl-cyclopropanecarboxamide], the inhibition at 20 ppm in data set [2] is ≥ 80%. `CC1(C(=O)Nc2ccc(-c3noc(C(F)(F)F)n3)cc2F)CC1` [Compound 1.10, N-[2-fluoro-4-[5-(trifluoromethyl)-1,2,4-oxadiazol-3-yl]phenyl]-1-methyl-cyclopropanecarboxamide]: the pest or weed control at 200 ppm in data set [1] is ≥ 80%. Moreover, in data set [2], the inhibition at 20 ppm was ≥ 80%.

As for `O=C(Nc1ccc(-c2noc(C(F)(F)F)n2)cc1F)C1CCCO1` (stereo not drawn) [Compound 1.11, N-[2-fluoro-4-[5-(trifluoromethyl)-1,2,4-oxadiazol-3-yl]phenyl]tetrahydrofuran-2-carboxamide], the inhibition at 20 ppm in data set [2] is ≥ 80%. Regarding `N#CC1(C(=O)Nc2ccc(-c3noc(C(F)(F)F)n3)cc2F)CC1` [Compound 1.12, 1-cyano-N-[2-fluoro-4-[5-(trifluoromethyl)-1,2,4-oxadiazol-3-yl]phenyl]cyclopropane carboxamide], the pest or weed control at 200 ppm in data set [1] was ≥ 80%. Besides, the inhibition at 20 ppm in data set [2] was ≥ 80%.

For the molecule `O=C(CC1CC1)Nc1ccc(-c2noc(C(F)(F)F)n2)cc1F` [Compound 1.13, 2-cyclopropyl-N-[2-fluoro-4-[5-(trifluoromethyl)-1,2,4-oxadiazol-3-yl]phenyl]acetamide], the pest or weed control at 200 ppm in data set [1] was ≥ 80%. Besides, the inhibition at 20 ppm in data set [2] is ≥ 80%.

`Cc1cc(-c2noc(C(F)(F)F)n2)ccc1NC(=O)C1CCOC1` (stereo not drawn) [Compound 1.16, N-[2-methyl-4-[5-(trifluoromethyl)-1,2,4-oxadiazol-3-yl]phenyl]tetrahydrofuran-3-carboxamide]: the inhibition at 20 ppm in data set [2] is ≥ 80%. For `Cc1cc(-c2noc(C(F)(F)F)n2)ccc1NC(=O)C1(C)CC1` [Compound 1.19, 1-methyl-N-[2-methyl-4-[5-(trifluoromethyl)-1,2,4-oxadiazol-3-yl]phenyl]cyclopropane carboxamide], in data set [1], the pest or weed control at 200 ppm is ≥ 80%. In addition, in data set [2], the inhibition at 20 ppm was ≥ 80%. As to `Cc1cc(-c2noc(C(F)(F)F)n2)ccc1NC(=O)C1CCCO1` (stereo not drawn) [Compound 1.20, N-[2-methyl-4-[5-(trifluoromethyl)-1,2,4-oxadiazol-3-yl]phenyl]tetrahydrofuran-2-carboxamide], the pest or weed control at 200 ppm in data set [1] is ≥ 80%. The inhibition at 20 ppm in data set [2] is ≥ 80%.
